Experimental data: patent publication US10670605B2, “Cysteine reactive probes and uses thereof” (The Scripps Research Institute, priority 2015, dated 2020)
Blank lines part the entries; values can stand above or below the compound they belong to.

Experiments:
Assay in all cases: Competitive isoTOP-ABPP in situ (fragment-treated cells)
Assay type in all cases: cell-based
[1] = molecular target: cysteines in MDA-MB-231 and Ramos cells (Homo sapiens, UniProt Q9UNI6)
[2] = molecular target: cysteines in MDA-MB-231 and Ramos cells (Homo sapiens, UniProt P48643); conditions: for isoTOP-ABPP ratio P48643_C253: 200 μM, insitu, 231
cysteines in MDA-MB-231 and Ramos cells (Homo sapiens, UniProt P48643), sequence (P48643 whole entry): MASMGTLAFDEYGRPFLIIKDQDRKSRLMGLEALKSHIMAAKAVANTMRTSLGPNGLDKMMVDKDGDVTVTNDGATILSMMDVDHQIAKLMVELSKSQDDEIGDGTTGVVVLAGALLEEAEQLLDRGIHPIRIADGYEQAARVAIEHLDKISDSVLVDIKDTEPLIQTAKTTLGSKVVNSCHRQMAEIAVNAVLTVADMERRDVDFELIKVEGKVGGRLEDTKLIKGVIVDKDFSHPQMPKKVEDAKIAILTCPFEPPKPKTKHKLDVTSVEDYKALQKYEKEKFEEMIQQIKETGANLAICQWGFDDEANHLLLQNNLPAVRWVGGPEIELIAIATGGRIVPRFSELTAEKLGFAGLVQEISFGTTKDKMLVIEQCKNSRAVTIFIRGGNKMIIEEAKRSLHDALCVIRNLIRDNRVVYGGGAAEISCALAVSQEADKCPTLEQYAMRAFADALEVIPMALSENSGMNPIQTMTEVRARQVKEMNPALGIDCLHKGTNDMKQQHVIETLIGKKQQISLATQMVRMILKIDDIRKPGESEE

[3] = molecular target: T1, cysteines in MDA-MB-231 and Ramos cells (Homo sapiens, UniProt Q96RU2)
T1 sequence (Q96RU2 1-1077): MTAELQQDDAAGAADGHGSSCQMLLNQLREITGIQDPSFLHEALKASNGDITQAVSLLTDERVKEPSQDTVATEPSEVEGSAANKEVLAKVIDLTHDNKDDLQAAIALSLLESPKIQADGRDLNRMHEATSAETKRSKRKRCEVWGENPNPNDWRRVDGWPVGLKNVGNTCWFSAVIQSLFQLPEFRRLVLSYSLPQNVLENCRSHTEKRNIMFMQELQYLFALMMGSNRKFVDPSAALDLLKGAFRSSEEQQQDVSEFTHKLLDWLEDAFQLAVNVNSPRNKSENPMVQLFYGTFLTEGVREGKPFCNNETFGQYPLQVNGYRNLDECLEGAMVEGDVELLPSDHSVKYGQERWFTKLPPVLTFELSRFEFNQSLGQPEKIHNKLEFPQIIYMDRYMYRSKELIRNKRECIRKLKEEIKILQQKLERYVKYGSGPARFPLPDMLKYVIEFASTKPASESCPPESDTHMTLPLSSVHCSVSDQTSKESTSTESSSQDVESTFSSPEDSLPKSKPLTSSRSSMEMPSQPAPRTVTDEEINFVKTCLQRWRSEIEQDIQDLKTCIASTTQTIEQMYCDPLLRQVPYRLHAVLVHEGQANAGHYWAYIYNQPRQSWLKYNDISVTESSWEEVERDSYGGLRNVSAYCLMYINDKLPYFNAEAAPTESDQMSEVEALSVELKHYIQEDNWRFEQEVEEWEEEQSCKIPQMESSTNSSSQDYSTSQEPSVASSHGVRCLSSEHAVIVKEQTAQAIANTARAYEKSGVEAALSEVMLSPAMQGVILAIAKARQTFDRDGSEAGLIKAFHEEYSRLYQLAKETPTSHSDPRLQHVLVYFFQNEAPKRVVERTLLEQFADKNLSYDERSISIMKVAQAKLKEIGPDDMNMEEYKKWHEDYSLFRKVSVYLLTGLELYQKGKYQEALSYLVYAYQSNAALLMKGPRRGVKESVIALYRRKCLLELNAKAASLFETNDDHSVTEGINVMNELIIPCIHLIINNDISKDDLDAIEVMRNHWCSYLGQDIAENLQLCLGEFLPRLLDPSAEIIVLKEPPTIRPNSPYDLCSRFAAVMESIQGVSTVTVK

[4] = molecular target: T2, cysteines in MDA-MB-231 and Ramos cells (Homo sapiens, UniProt P53384)
T2 sequence (P53384 1-320): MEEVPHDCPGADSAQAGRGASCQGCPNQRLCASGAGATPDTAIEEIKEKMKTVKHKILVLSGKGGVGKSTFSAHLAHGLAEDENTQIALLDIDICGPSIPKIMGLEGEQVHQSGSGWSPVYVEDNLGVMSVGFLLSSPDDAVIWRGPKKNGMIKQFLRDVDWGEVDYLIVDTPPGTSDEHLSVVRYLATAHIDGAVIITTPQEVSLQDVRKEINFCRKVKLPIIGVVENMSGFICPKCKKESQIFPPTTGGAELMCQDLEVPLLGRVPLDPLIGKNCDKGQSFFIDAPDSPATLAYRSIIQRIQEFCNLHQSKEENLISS

[5] = molecular target: T3, cysteines in MDA-MB-231 and Ramos cells (Homo sapiens, UniProt O14733); conditions: 200 μM, insitu
T3 sequence (O14733 1-419): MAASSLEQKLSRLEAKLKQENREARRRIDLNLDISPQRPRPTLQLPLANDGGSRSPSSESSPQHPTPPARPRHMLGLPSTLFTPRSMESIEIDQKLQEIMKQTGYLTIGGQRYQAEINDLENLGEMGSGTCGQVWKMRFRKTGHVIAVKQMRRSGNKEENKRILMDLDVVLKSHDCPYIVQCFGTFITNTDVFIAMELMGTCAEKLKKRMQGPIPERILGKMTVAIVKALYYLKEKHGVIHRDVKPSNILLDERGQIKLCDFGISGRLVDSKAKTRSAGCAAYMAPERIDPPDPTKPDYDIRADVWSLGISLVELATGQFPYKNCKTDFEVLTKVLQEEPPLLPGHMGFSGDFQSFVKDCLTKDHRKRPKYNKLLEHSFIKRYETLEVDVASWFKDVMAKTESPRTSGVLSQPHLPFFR

[6] = molecular target: T4, cysteines in MDA-MB-231 and Ramos cells (Homo sapiens, UniProt Q9P0J1); conditions: 200 μM, insitu, 231
T4 sequence (Q9P0J1 72-537): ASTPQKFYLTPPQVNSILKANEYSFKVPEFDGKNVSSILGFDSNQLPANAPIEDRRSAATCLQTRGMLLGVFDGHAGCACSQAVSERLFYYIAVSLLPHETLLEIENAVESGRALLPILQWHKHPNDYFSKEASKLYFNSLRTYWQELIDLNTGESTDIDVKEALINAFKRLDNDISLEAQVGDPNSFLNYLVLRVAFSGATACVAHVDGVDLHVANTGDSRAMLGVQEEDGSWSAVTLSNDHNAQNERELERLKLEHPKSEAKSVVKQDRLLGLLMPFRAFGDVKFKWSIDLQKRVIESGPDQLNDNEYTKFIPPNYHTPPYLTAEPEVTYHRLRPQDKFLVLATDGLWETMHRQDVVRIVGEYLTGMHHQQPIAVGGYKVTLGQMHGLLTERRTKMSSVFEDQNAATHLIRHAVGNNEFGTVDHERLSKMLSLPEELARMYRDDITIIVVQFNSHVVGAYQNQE

[7] = molecular target: cysteines in MDA-MB-231 and Ramos cells (Homo sapiens, UniProt P04818); conditions: for isoTOP-ABPP ratio P04818_C199: 200 μM, insitu, 231
cysteines in MDA-MB-231 and Ramos cells (Homo sapiens, UniProt P04818), sequence (P04818 whole entry): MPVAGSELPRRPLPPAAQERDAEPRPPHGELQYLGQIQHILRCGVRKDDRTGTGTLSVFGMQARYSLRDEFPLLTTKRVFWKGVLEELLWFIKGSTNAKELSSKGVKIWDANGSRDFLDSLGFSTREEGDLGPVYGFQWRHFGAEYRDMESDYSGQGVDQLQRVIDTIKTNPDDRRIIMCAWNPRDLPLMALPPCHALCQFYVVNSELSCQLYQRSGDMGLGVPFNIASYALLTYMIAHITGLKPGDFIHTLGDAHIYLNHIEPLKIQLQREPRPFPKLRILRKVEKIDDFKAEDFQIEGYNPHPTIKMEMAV

[8] = molecular target: cysteines in MDA-MB-231 and Ramos cells (Homo sapiens, UniProt P51812); conditions: 200 μM, insitu, 231
cysteines in MDA-MB-231 and Ramos cells (Homo sapiens, UniProt P51812), sequence (P51812 whole entry): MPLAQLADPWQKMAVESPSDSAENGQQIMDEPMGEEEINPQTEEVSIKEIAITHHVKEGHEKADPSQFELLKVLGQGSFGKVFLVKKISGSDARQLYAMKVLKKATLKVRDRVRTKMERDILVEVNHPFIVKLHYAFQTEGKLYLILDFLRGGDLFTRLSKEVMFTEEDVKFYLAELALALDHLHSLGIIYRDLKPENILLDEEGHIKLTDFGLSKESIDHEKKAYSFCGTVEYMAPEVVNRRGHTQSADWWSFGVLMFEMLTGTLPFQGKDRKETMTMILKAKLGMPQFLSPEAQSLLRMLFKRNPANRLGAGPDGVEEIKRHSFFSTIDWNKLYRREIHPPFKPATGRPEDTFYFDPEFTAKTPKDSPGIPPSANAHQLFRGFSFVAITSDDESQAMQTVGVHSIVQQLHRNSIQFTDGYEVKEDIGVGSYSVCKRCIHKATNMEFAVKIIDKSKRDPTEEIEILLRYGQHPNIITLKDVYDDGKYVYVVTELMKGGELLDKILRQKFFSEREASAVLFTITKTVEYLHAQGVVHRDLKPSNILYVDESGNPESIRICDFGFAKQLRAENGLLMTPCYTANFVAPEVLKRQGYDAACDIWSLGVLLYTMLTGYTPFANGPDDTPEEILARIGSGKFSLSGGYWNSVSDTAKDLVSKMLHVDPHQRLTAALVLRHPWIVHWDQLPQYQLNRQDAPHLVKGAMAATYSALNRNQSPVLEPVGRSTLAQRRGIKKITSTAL

[9] = molecular target: cysteines in MDA-MB-231 and Ramos cells (Homo sapiens, UniProt Q06203)
cysteines in MDA-MB-231 and Ramos cells (Homo sapiens, UniProt Q06203), sequence (Q06203 12-517): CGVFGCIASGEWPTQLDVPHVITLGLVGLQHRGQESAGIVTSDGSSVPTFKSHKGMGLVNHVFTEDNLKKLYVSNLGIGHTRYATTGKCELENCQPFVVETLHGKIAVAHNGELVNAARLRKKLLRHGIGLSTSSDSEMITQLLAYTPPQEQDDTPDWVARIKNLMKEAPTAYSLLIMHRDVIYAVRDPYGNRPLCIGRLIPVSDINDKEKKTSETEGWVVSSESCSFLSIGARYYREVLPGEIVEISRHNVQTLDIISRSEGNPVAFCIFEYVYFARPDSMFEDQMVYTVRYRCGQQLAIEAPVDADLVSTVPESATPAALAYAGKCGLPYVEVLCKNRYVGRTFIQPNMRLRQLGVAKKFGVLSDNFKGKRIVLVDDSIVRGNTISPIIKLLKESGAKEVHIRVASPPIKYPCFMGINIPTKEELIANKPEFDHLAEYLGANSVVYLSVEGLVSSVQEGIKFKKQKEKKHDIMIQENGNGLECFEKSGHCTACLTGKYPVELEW

[10] = molecular target: cysteines in MDA-MB-231 and Ramos cells (Homo sapiens, UniProt Q6XZF7)
cysteines in MDA-MB-231 and Ramos cells (Homo sapiens, UniProt Q6XZF7), sequence (Q6XZF7 whole entry): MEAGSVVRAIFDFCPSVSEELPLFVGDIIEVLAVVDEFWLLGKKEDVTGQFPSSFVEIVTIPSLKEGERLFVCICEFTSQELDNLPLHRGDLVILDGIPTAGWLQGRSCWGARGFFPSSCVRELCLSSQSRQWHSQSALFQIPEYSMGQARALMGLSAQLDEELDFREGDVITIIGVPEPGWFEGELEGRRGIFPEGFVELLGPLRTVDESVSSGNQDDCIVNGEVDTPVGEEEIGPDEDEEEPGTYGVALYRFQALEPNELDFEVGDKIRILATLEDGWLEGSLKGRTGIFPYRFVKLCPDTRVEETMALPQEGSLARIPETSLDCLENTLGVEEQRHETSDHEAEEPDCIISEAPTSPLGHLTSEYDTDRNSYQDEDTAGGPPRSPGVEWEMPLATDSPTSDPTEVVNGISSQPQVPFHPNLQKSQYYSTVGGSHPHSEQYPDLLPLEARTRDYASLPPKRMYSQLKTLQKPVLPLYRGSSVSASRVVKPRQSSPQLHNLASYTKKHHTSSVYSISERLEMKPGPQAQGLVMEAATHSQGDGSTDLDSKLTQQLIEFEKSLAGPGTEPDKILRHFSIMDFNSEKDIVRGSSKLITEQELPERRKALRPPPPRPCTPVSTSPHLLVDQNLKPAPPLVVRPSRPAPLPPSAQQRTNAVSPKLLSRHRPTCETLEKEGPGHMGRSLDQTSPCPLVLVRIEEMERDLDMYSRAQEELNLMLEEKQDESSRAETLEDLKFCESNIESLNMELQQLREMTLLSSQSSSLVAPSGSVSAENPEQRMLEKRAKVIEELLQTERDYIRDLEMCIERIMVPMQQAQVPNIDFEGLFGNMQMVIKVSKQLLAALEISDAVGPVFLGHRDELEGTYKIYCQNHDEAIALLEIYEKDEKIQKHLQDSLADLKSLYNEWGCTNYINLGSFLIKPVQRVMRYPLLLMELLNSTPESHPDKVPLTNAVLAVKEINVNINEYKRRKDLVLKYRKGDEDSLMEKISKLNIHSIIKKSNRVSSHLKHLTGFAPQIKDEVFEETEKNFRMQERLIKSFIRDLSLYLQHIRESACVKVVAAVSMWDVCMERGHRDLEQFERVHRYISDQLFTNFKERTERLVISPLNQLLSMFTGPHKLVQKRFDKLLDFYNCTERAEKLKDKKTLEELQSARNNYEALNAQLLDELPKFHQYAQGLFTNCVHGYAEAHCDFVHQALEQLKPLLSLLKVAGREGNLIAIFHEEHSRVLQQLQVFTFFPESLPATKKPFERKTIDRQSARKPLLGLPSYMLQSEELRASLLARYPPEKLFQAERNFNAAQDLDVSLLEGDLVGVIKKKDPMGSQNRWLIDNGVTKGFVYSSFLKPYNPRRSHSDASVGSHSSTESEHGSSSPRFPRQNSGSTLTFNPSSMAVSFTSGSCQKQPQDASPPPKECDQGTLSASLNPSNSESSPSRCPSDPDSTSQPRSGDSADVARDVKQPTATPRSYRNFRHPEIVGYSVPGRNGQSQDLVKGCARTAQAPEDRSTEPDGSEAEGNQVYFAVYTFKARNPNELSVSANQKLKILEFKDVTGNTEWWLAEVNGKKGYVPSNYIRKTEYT

cysteines in MDA-MB-231 and Ramos cells (Homo sapiens, UniProt Q9UNI6), sequence (Q9UNI6 whole entry): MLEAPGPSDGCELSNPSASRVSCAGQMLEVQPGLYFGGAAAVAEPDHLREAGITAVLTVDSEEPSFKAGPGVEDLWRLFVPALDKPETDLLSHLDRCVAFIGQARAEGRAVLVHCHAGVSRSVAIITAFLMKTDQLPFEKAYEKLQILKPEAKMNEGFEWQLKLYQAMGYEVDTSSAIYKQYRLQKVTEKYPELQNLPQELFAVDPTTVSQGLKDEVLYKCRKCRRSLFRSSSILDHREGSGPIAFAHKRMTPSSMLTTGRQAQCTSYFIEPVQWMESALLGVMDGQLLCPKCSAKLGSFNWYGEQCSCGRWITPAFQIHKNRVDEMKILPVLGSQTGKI

isoTOP-ABPP ratio Q9UNI6_C265 ([1]; 200 μM, insitu, 231): 0.8
isoTOP-ABPP ratio P48643_C253 [2]: 0.8
isoTOP-ABPP ratio, Q96RU2_C171 ([3]; 200 μM, insitu, 231): 1.1
SMILES: COc1ccccc1OCCNC(=O)CCl [compound 28]

isoTOP-ABPP ratio, cysteine O14733_C131 [5]; 231: 0.7
isoTOP-ABPP ratio, cysteine Q6XZF7_C691 ([10]; 200 μM, insitu, 231): 0.8
SMILES: O=C(CCl)NC12CC3CC(CC(C3)C1)C2 [compound 21]

isoTOP-ABPP ratio Q9P0J1_C149 [6]: 0.8
isoTOP-ABPP ratio P04818_C199 [7]: 20.0
isoTOP-ABPP ratio P48643_C253 [2]: 0.8
SMILES: O=C(CCl)Nc1cccc2ncccc12 [compound 51]

Continued, compound first:

SMILES: Cc1ccc(C=C(C#N)C(=O)NCCN2CCOCC2)cc1 [compound 41]
isoTOP-ABPP ratio Q9UNI6_C265 ([1]; 200 μM, insitu, 231): 1.0
isoTOP-ABPP ratio P53384_C235 ([4]; 200 μM, insitu, 231): 0.2
isoTOP-ABPP ratio O14733_C131 [5]; 231: 0.8
isoTOP-ABPP ratio Q9P0J1_C149 [6]: 20.0
isoTOP-ABPP ratio P04818_C199 [7]: 0.7
isoTOP-ABPP ratio P48643_C253 [2]: 0.8
isoTOP-ABPP ratio P51812_C436 [8]: 4.5

SMILES: O=C(CCl)NC(=O)NC12CC3CC(CC(C3)C1)C2 [compound 12]
isoTOP-ABPP ratio, cysteine Q9UNI6_C265 ([1]; 200 μM, insitu, 231): 1.2
isoTOP-ABPP ratio, cysteine P53384_C235 ([4]; 200 μM, insitu, 231): 0.5
isoTOP-ABPP ratio, cysteine O14733_C131 [5]; 231: 1.7
isoTOP-ABPP ratio, cysteine Q9P0J1_C149 [6]: 18.5
isoTOP-ABPP ratio P48643_C253 [2]: 5.1
isoTOP-ABPP ratio, cysteine Q96RU2_C171 ([3]; 200 μM, insitu, 231): 20.0
isoTOP-ABPP ratio, cysteine P51812_C436 [8]: 1.4

SMILES: O=C(CCl)NCCc1c[nH]c2ccccc12 [compound 13]
isoTOP-ABPP ratio, cysteine Q06203_C100 ([9]; 200 μM, insitu, ramos): 2.0
isoTOP-ABPP ratio, cysteine O14733_C131 ([5]; ramos): 1.6
isoTOP-ABPP ratio, cysteine Q6XZF7_C691 ([10]; 200 μM, insitu, 231): 1.6
isoTOP-ABPP ratio, cysteine P51812_C436 [8]: 1.0

SMILES: O=C(CCl)N1CCC(Cc2ccccc2)CC1 [compound 9]
isoTOP-ABPP reactivity P53384_C235 NUBP1 ([4]; 200 μM, insitu, 231): 6.8
isoTOP-ABPP reactivity Q6XZF7_C691 DNMBP ([10]; 200 μM, insitu, 231): 3.4
isoTOP-ABPP reactivity P51812_C436 RPS6KA3 [8]: 2.1

SMILES: COc1ccc(C2CC(c3cccs3)=NN2C(=O)CCl)cc1 (stereo not drawn) [compound 4]
isoTOP-ABPP reactivity Q06203_C100 PPAT ([9]; 100 μM in situ 231): 1.7
isoTOP-ABPP reactivity Q9UNI6_C265 DUSP12 ([1]; 100 μM in situ 231): 0.8
isoTOP-ABPP reactivity P53384_C235 NUBP1 ([4]; 100 μM in situ 231): 0.6
isoTOP-ABPP reactivity Q6XZF7_C691 DNMBP ([10]; 100 μM in situ 231): 1.2
isoTOP-ABPP reactivity P04818_C199 TYMS ([7]; 100 μM in situ 231): 20.0
isoTOP-ABPP reactivity P48643_C253 CCT5 ([2]; 100 μM in situ 231): 0.8
isoTOP-ABPP reactivity Q96RU2_C171 USP28 ([3]; 100 μM in situ 231): 20.0
